Test results from patent US7247644B2, “Ester derivatives of a decahydroisoquinoline-3-carboxylic acid as analgestics” (Eli Lilly and Company, priority 2003, dated 2007).

Experiments:
Type in all cases: in vivo
[1] = Bioavailability in Rats: plasma concentrations of parent acid by LC/MS/MS; conditions: male, rat, iv; Compound A in plasma, Fischer rats, 10 mg/kg
Description: (§1) Percent bioavailability is determined using the following equation:
(§2) [formula] wherein AUC represents the area under the curve, p.o. represents oral dose, and i.v. represents intravenous dose. Bioavailability in Dogs:
Male Fischer Rats are administered either an oral or iv dose of (3S,[…])-6-[2-(1(2)H-tetrazole-5-yl)ethyl-1,2,3,4,4a,5,6,7,8,8a-decahydroisoquinoline-3-carboxylic acid (10 mg/Kg) to determine oral bioavailability. A separate group of rats are administered an oral 10 mg/kg dose of an ester prodrug (for example (3S,4aR,6R,8aR)-6-[2-(1(2)H-tetrazole-5-yl)ethyl-1,2,3,4,4a,5,6,7,8,8a-decahydroisoquinoline-3-carboxylic acid ethyl ester, HCL salt) to determine whether the prodrug would increase bioavailability of the parent acid. The plasma concentrations of (3S,4aR,6R,8aR)-6-[2-(1(2)H-tetrazole-5-yl)ethyl-1,2,3,4,4a,5,6,7,8,8a-decahydroisoquinoline-3-carboxylic acid are determined by LC/MS/MS.

[2] = Bioavailability in Cynomolgus Monkeys: plasma concentrations of parent acid by LC/MS/MS; conditions: both sexes, cynomolgus monkey, iv, 0.3 mg/kg, Compound A in plasma, .3 mg/kg
Description: as §1, §2
Two male and two female monkeys are administered an oral, and later, an iv dose of (3S,4aR,6R,8aR)-6-[2-(1(2)H-tetrazole-5-yl)ethyl-1,2,3,4,4a,5,6,7,8,8a-decahydroisoquinoline-3-carboxylic acid (oral: 3 mg/kg; iv: 0.3 mg/kg) to determine oral bioavailability. The same animals are also subsequently administered an oral 3 mg/kg dose of (3S,4aR,6R,8aR)-6-[2-(1(2)H-tetrazole-5-yl)ethyl-1,2,3,4,4a,5,6,7,8,8a-decahydroisoquinoline-3-carboxylic acid ethyl ester to determine if the ester prodrug form increases bioavailability of the parent acid. The plasma concentrations of the parent acid are determined by LC/MS/MS.
Four cynomolgus monkeys (2/sex) are given a single oral dose of (3S,4aR,6R,8aR)-6-[2-(1(2)H-tetrazole-5-yl)ethyl-1,2,3,4,4a,5,6,7,8,8a-decahydroisoquinoline-3-carboxylic acid (3 mg/kg) on day 0, a single iv dose of (3S,4aR,6R,8aR)-6-[2-(1(2)H-tetrazole-5-yl)ethyl-1,2,3,4,4a,5,6,7,8,8a-decahydroisoquinoline-3-carboxylic acid (0.3 mg/kg) on day 4 and a single oral dose of (3S,4aR,6R,8aR)-6-[2-(1(2)H-tetrazole-5-yl)ethyl-1,2,3,4,4a,5,6,7,8,8a-decahydroisoquinoline-3-carboxylic acid ethyl ester (3 mg/kg) on day 8. […]

[3] = Bioavailability in Dogs: plasma concentrations of parent acid by LC/MS/MS; conditions: both sexes, dog, iv; Compound A in plasma, Beagle dogs, 1 mg/kg
Description: as §1, §2
Beagle dogs (2 male and 1 female) are administered an oral dose, and later an iv dose of (3S,4aR,6R,8aR)-6-[2-(1(2)H-tetrazole-5-yl)ethyl-1,2,3,4,4a,5,6,7,8,8a-decahydroisoquinoline-3-carboxylic acid (10 mg/Kg p.o; 1 mg/Kg i.v.) to determine oral bioavailability. Subsequently, the same three dogs are administered an oral 10 mg/kg dose of an ester prodrug (for example (3S,4aR,6R,8aR)-6-[2-(1(2)H-tetrazole-5-yl)ethyl-1,2,3,4,4a,5,6,7,8,8a-decahydroisoquinoline-3-carboxylic acid ethyl ester, HCL salt) to determine whether the prodrug would increase bioavailability of the parent acid. The plasma concentrations of (3S,4aR,6R,8aR)-6-[2-(1(2)H-tetrazole-5-yl)ethyl-1,2,3,4,4a,5,6,7,8,8a-decahydroisoquinoline-3-carboxylic acid are determined by LC/MS/MS.
Live Phase: (3S,4aR,6R,8aR)-6-[2-(1(2)H-tetrazole-5-yl)ethyl-1,2,3,4,4a,5,6,7,8,8a-decahydroisoquinoline-3-carboxylic acid (HCl salt) is dissolved in dilute sodium hydroxide for oral administration (30 mg/ml) and in 10% ethanol/water for iv administration (10 mg/ml). […]

Question: With `O=C(O)[C@@H]1C[C@H]2C[C@@H](CCc3nn[nH]n3)CC[C@H]2CN1` [Compound A] as the compound, how does the AUC [1] read?
Answer: 6730 ng·h/mL

Question: What about the Cmax [1] of the same compound?
Answer: 11000 ng/mL

Question: What about the AUC [2] of the same compound?
Answer: 1080 ng·h/mL

Question: And the Cmax [2]?
Answer: 1620 ng/mL

Question: And the AUC [3]?
Answer: 4220 ng·h/mL

Question: What about the Cmax [3] of the same compound?
Answer: 2820 ng/mL
